# Patent publication US12692274B2, “Tetrahydroisoquinoline derivatives for the treatment of red blood disorders and inflammatory diseases” (Sanofi, priority 2020, dated 2026)
# Several values for one entry are separate records, joined by “and”; a condition that tells them apart may be missing. Equal values may be shown once.
# Test system: NQO1 activation in BEAS-2B cells
# Experiment: BEAS-2B cellular MTT assay of NQO1 activation, 0% HSA
# Type: cell-based
# Settings: Homo sapiens, serum free, read-out: BEAS EC50 (nM) serum free
# Summary of the method: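 For the 0% HSA condition, cells were seeded into collagen plates in HSA-free medium. Culture was BEAS-2B in BEBM plus BEGM SingleQuots lacking GA-1000, held under 70% confluence, at a seeding density reaching 95-100% confluence by 48 h.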
row,Compound,EC50 [nM]
1,Cc1c2cnc3c1nnn3CCCCCc1cc(F)c(c(F)c1)C(=O)N1CCc3ccc(cc3C1)[C@H]2CC(=O)O [Compound 139],0.2
2,Cc1c2cnc3c1nnn3CCCCCCc1ccc(cc1)C(=O)N1CCc3ccc(cc3C1)[C@H]2CC(=O)O [Compound 140],11.6
3,O=C(O)CC1c2ccc3c(c2)CN(CC3)C(=O)c2ccc(cc2F)CCCCCn2nnc3c(Cl)c1ccc32 (stereo not drawn) [Compound 145],0.6
4,Cc1cc2ccc1C(=O)N1CCc3ccc(cc3C1)C(CC(=O)O)c1ccc(nc1C)OCCCCC2 (stereo not drawn) [Compound 149],74.3
5,Cc1nc2ccc1C(CC(=O)O)c1ccc3c(c1)CN(CC3)C(=O)c1ccc(cc1)CCCCCO2 (stereo not drawn) [Compound 150],103
6,Cc1cc2ccc1C(=O)N1CCc3ccc(cc3C1)C(CC(=O)O)c1cnc(cc1C)OCCCCO2 (stereo not drawn) [Compound 151],216
7,Cc1cc2ccc1C(=O)N1CCc3ccc(cc3C1)C(CC(=O)O)c1ccc(nc1)OCCCCC2 (stereo not drawn) [Compound 154],16.6
8,Cc1c2ccc3c1nnn3CCCCCCOc1ccc(cc1)C(=O)N1CCc3ccc(cc3C1)[C@H]2[C@@H](C)C(=O)O [Compound 155],> 10000
9,Cc1cc2ncc1C(CC(=O)O)c1ccc3c(c1)CN(CC3)C(=O)c1ccc(cc1)CCCCCO2 (stereo not drawn) [Compound 157],3.2

# Same assay, conditions: serum free, read-out: BEAS EC50 (nM) serum free
row,Compound,EC50 [nM]
1,Cc1c2cnc3c1nnn3CCCCCCc1ccc(cc1)C(=O)N1CCc3ccc(cc3C1)[C@H]2CC(=O)O [Compound 140],8.8
2,O=C(O)CC1c2ccc3c(c2)CN(CC3)C(=O)c2ccc(cc2F)CCCCCn2nnc3c(Cl)c1ccc32 (stereo not drawn) [Compound 145],0.5
3,Cc1cc2ccc1C(=O)N1CCc3ccc(cc3C1)C(CC(=O)O)c1ccc(nc1C)OCCCCC2 (stereo not drawn) [Compound 149],67.8
4,Cc1nc2ccc1C(CC(=O)O)c1ccc3c(c1)CN(CC3)C(=O)c1ccc(cc1)CCCCCO2 (stereo not drawn) [Compound 150],147
5,Cc1cc2ccc1C(=O)N1CCc3ccc(cc3C1)C(CC(=O)O)c1cnc(cc1C)OCCCCO2 (stereo not drawn) [Compound 151],170
6,Cc1cc2ccc1C(=O)N1CCc3ccc(cc3C1)C(CC(=O)O)c1ccc(nc1)OCCCCC2 (stereo not drawn) [Compound 154],13.6
7,Cc1cc2ncc1C(CC(=O)O)c1ccc3c(c1)CN(CC3)C(=O)c1ccc(cc1)CCCCCO2 (stereo not drawn) [Compound 157],2.1

# Test system: NQO1 activation in BEAS-2B cells
# Experiment: BEAS-2B cellular MTT assay of NQO1 activation, 0.3% HSA
# Type: cell-based
# Settings: BEAS+, read-out: BEAS+ EC50
# Summary of the method: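 MTT read-out in BEAS-2B cells grown in BEBM with SingleQuots, no GA-1000, kept below 70% confluence; plates coated with collagen, with 0.3% or 0% HSA medium, seeded to 95-100% confluency at 48 h, 37 °C, 5% CO2.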
row,Compound,EC50 [µM]
1,Cc1c2cnc3c1nnn3CCCCCc1cc(F)c(c(F)c1)C(=O)N1CCc3ccc(cc3C1)[C@H]2CC(=O)O [Compound 139],0.0003
2,Cc1c2cnc3c1nnn3CCCCCCc1ccc(cc1)C(=O)N1CCc3ccc(cc3C1)[C@H]2CC(=O)O [Compound 140],0.0273
3,O=C(O)CC1c2ccc3c(c2)CN(CC3)C(=O)c2ccc(cc2F)CCCCCn2nnc3c(Cl)c1ccc32 (stereo not drawn) [Compound 145],0.0007
4,Cc1cc2ccc1C(=O)N1CCc3ccc(cc3C1)C(CC(=O)O)c1ccc(nc1C)OCCCCC2 (stereo not drawn) [Compound 149],0.0893
5,Cc1nc2ccc1C(CC(=O)O)c1ccc3c(c1)CN(CC3)C(=O)c1ccc(cc1)CCCCCO2 (stereo not drawn) [Compound 150],0.188
6,Cc1cc2ccc1C(=O)N1CCc3ccc(cc3C1)C(CC(=O)O)c1cnc(cc1C)OCCCCO2 (stereo not drawn) [Compound 151],0.121
7,Cc1cc2ccc1C(=O)N1CCc3ccc(cc3C1)C(CC(=O)O)c1ccc(nc1)OCCCCC2 (stereo not drawn) [Compound 154],0.0358
8,Cc1cc2ncc1C(CC(=O)O)c1ccc3c(c1)CN(CC3)C(=O)c1ccc(cc1)CCCCCO2 (stereo not drawn) [Compound 157],0.0089

# Same assay, conditions: Homo sapiens, BEAS+, read-out: BEAS+ EC50
row,Compound,EC50 [µM]
1,Cc1c2cnc3c1nnn3CCCCCc1cc(F)c(c(F)c1)C(=O)N1CCc3ccc(cc3C1)[C@H]2CC(=O)O [Compound 139],0.0002
2,Cc1c2cnc3c1nnn3CCCCCCc1ccc(cc1)C(=O)N1CCc3ccc(cc3C1)[C@H]2CC(=O)O [Compound 140],0.0304
3,O=C(O)CC1c2ccc3c(c2)CN(CC3)C(=O)c2ccc(cc2F)CCCCCn2nnc3c(Cl)c1ccc32 (stereo not drawn) [Compound 145],0.0004
4,Cc1cc2ccc1C(=O)N1CCc3ccc(cc3C1)C(CC(=O)O)c1ccc(nc1C)OCCCCC2 (stereo not drawn) [Compound 149],0.103
5,Cc1nc2ccc1C(CC(=O)O)c1ccc3c(c1)CN(CC3)C(=O)c1ccc(cc1)CCCCCO2 (stereo not drawn) [Compound 150],0.164
6,Cc1cc2ccc1C(=O)N1CCc3ccc(cc3C1)C(CC(=O)O)c1cnc(cc1C)OCCCCO2 (stereo not drawn) [Compound 151],0.23
7,Cc1cc2ccc1C(=O)N1CCc3ccc(cc3C1)C(CC(=O)O)c1ccc(nc1)OCCCCC2 (stereo not drawn) [Compound 154],0.0378
8,Cc1c2ccc3c1nnn3CCCCCCOc1ccc(cc1)C(=O)N1CCc3ccc(cc3C1)[C@H]2[C@@H](C)C(=O)O [Compound 155],> 10
9,Cc1cc2ncc1C(CC(=O)O)c1ccc3c(c1)CN(CC3)C(=O)c1ccc(cc1)CCCCCO2 (stereo not drawn) [Compound 157],0.0092

# Target: HIS-Keap1 full length / Biotin-Nrf2 (16-mer) (Homo sapiens, UniProt Q14145)
# Experiment: biochemical
# Settings: not given
# HIS-Keap1 full length / Biotin-Nrf2 (16-mer), sequence (Q14145 whole entry): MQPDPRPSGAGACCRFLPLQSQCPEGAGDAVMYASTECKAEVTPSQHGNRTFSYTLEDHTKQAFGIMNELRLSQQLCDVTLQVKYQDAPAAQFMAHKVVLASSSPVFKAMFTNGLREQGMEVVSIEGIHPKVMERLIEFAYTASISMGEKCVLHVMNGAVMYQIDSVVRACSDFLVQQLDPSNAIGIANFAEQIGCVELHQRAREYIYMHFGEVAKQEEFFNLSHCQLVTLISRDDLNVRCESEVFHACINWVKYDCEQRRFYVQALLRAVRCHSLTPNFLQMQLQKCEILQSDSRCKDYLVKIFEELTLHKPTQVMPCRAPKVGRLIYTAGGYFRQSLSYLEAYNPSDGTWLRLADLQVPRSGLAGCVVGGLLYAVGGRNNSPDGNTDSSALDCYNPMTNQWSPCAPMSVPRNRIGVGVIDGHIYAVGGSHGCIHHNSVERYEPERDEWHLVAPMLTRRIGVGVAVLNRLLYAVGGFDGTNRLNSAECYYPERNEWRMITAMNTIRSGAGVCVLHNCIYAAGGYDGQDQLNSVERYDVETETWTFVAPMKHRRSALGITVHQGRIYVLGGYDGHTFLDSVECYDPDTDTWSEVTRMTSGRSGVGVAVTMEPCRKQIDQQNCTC
row,Compound,IC50
1,Cc1c2cnc3c1nnn3CCCCCc1cc(F)c(c(F)c1)C(=O)N1CCc3ccc(cc3C1)[C@H]2CC(=O)O [Compound 139],0.0001 µM
2,Cc1c2cnc3c1nnn3CCCCCCc1ccc(cc1)C(=O)N1CCc3ccc(cc3C1)[C@H]2CC(=O)O [Compound 140],0.0003 µM and 0.0005 µM
3,O=C(O)CC1c2ccc3c(c2)CN(CC3)C(=O)c2ccc(cc2F)CCCCCn2nnc3c(Cl)c1ccc32 (stereo not drawn) [Compound 145],0.0001 µM
4,Cc1cc2ccc1C(=O)N1CCc3ccc(cc3C1)C(CC(=O)O)c1ccc(nc1C)OCCCCC2 (stereo not drawn) [Compound 149],0.0094 µM and 0.0074 µM
5,Cc1nc2ccc1C(CC(=O)O)c1ccc3c(c1)CN(CC3)C(=O)c1ccc(cc1)CCCCCO2 (stereo not drawn) [Compound 150],0.113 µM and 0.106 µM
6,Cc1cc2ccc1C(=O)N1CCc3ccc(cc3C1)C(CC(=O)O)c1cnc(cc1C)OCCCCO2 (stereo not drawn) [Compound 151],0.0024 µM and 0.0027 µM
7,Cc1cc2ccc1C(=O)N1CCc3ccc(cc3C1)C(CC(=O)O)c1ccc(nc1)OCCCCC2 (stereo not drawn) [Compound 154],0.0033 µM and 0.0035 µM
8,Cc1c2ccc3c1nnn3CCCCCCOc1ccc(cc1)C(=O)N1CCc3ccc(cc3C1)[C@H]2[C@@H](C)C(=O)O [Compound 155],0.734 µM and 0.514 µM
9,Cc1cc2ncc1C(CC(=O)O)c1ccc3c(c1)CN(CC3)C(=O)c1ccc(cc1)CCCCCO2 (stereo not drawn) [Compound 157],0.0038 µM and 0.004 µM
